The source of these data is PubChem BioAssay (NCI).

Some test systems named below: A549 NSCLC; ACHN renal; DU-145 prostate; HCC-2998 colon; HS 578T breast; NCI-H226 lung; SNB-75 CNS; SW-620 colon; MDA-N.
Assay in all cases: NCI anticancer screen, dose series, 48 h

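Protocol summary: plate cells (96-well), add compound at 5 concentrations, incubate 48 h, interpolate endpoints linearly. At the GI50, growth is halved. At the TGI there is no net growth.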

On to `COc1ccc2[nH]c(O)c(/C=c3/cc4c(c(-c5ccc(F)cc5)n3)=Nc3ccccc3-4)c2c1`, for which the GI50 with A549 NSCLC was 2.31 µM; in the test on ACHN renal, 10.3 µM; with DU-145 prostate, 2.97 µM; with HCC-2998 colon it was 3.3 µM; with HS 578T breast, 2.02 µM; in the test with NCI-H226 lung, 34.2 µM. The GI50 with SNB-75 CNS was 13 µM; with SW-620 colon, 1.85 µM. In addition, the TGI is 6.34 µM in the test on A549 NSCLC; 22.5 µM in the test on ACHN renal; 7.96 µM in the test on DU-145 prostate; 12.6 µM in the test on HCC-2998 colon; 7.48 µM in the test with HS 578T breast; above 100 µM in the test on NCI-H226 lung. The TGI with SNB-75 CNS was 27.4 µM; in the test with SW-620 colon it was 3.89 µM.

As to `Cc1nc2c(=O)[nH]c3ccc(Cl)cc3c2o1`, the TGI with A549 NSCLC, in the test with ACHN renal, in the test on HCC-2998 colon, with HS 578T breast, in the test with MDA-N and with NCI-H226 lung was above 100 µM in each case. Also, the TGI with SNB-75 CNS and in the test on SW-620 colon was above 100 µM each time.

Consider `Brc1cccc[n+]1-c1ccc2cc(-[n+]3ccccc3Br)ccc2c1`, for which the TGI in the test with A549 NSCLC was above 100 µM; in the test on ACHN renal, 37.2 µM; with DU-145 prostate it was 35.5 µM; in the test with HCC-2998 colon it was above 100 µM; with HS 578T breast it was above 100 µM; in the test with NCI-H226 lung, above 100 µM. The compound further gave a TGI in the test with SW-620 colon above 100 µM.

For `COC(=O)C(Cc1nc2ccccc2[nH]c1=O)C(=O)C(=O)Nc1cc(C(F)(F)F)ccc1Cl` (stereo not given), the TGI with A549 NSCLC is above 100 µM; in the test on ACHN renal, 24.5 µM; with HCC-2998 colon, 26.4 µM; with HS 578T breast it was 43.2 µM; with MDA-N, above 100 µM; with NCI-H226 lung, 35.1 µM. Also, the TGI in the test with SNB-75 CNS is 46.1 µM; with SW-620 colon, above 100 µM.

With `OC1c2ccccc2C(O)C2OC12` (stereo not given), the TGI in the test with A549 NSCLC, in the test on ACHN renal, in the test on DU-145 prostate, in the test with MDA-N, in the test on NCI-H226 lung and in the test with SW-620 colon was above 100 µM in each case.

For `O=P1(c2ccccc2)C2=CCC=CC2C(c2ccccc2)N1Cc1ccccc1` (stereo not given), the TGI with A549 NSCLC is 32.3 µM; in the test on ACHN renal it was 30.4 µM; in the test on DU-145 prostate, 31.4 µM; with HS 578T breast it was 43.9 µM; in the test on MDA-N, 38.2 µM; in the test with SW-620 colon it was 43 µM.

`CC(/C=N/NC1=NCCCN1)=N\NC1=NCCCN1`: the TGI in the test with A549 NSCLC, with ACHN renal, in the test with HCC-2998 colon, in the test with HS 578T breast, with MDA-N and with NCI-H226 lung was above 100 µM in each case. The TGI in the test with SNB-75 CNS and in the test with SW-620 colon was above 100 µM in each case.

With `C/C=C1\CC(C(=O)OCC)CCCCCCCCCCC1=O` (stereo not given), the TGI in the test with A549 NSCLC, in the test with ACHN renal, in the test on DU-145 prostate, in the test on HS 578T breast, in the test with MDA-N and in the test on NCI-H226 lung was above 100 µM in each case. Besides, the TGI in the test on SNB-75 CNS and in the test with SW-620 colon was above 100 µM in each case.

As to `CN1B(c2ccccc2)N(C)C(=O)N(C)C1=O`, the TGI with A549 NSCLC, with ACHN renal, in the test with DU-145 prostate, in the test on HS 578T breast, in the test on MDA-N and with NCI-H226 lung was above 100 µM each time. For the same compound, the TGI with SNB-75 CNS and in the test on SW-620 colon was above 100 µM throughout.

Consider `CC1CN=C(c2ccc(COc3ccc(C4=NCC(C)N4)cc3)cc2)N1` (stereo not given), for which the TGI in the test with A549 NSCLC, in the test with ACHN renal, in the test with DU-145 prostate, in the test with HCC-2998 colon, with HS 578T breast and in the test on MDA-N was above 100 µM each time. Besides, the TGI in the test on SNB-75 CNS is 64.4 µM; in the test with SW-620 colon, above 100 µM.

Take `CC1(C)C2CCC(N)(C2)C1O` (stereo not given): the TGI in the test with A549 NSCLC, with ACHN renal, in the test with DU-145 prostate, with HCC-2998 colon, in the test on MDA-N and in the test with NCI-H226 lung was above 100 µM in each case. In addition, the TGI in the test with SNB-75 CNS and with SW-620 colon was above 100 µM in each case.

Turning to `N=C(c1cccs1)C1(N2CCCCC2)CCCCC1`, the TGI in the test on A549 NSCLC was 60.2 µM; in the test on ACHN renal, 30.5 µM; in the test with DU-145 prostate it was 30.4 µM; in the test on HCC-2998 colon, 27.1 µM; in the test on HS 578T breast, above 100 µM; in the test with MDA-N it was above 100 µM. In addition, the TGI in the test on SW-620 colon amounted to 34.7 µM.

Take `C#CCOC(=O)C(N)CCSC` (stereo not given): the TGI in the test on A549 NSCLC, in the test with ACHN renal, in the test on DU-145 prostate, with HS 578T breast, in the test with MDA-N and in the test with NCI-H226 lung was above 100 µM in each case. For the same compound, the TGI in the test on SNB-75 CNS and in the test on SW-620 colon was above 100 µM in each case.

In the case of `C=CC(Br)(CBr)CCC(Br)C(C)C` (stereo not given), the TGI turned out to be 28.5 µM with A549 NSCLC; 20.6 µM in the test on ACHN renal; 22.8 µM in the test on DU-145 prostate; 7.73 µM in the test on HS 578T breast; 6.37 µM in the test with MDA-N; 30.8 µM with NCI-H226 lung. Besides, the results for the TGI with SNB-75 CNS and in the test on SW-620 colon were 6.13 µM and 5.38 µM, respectively.

As to `CN1C(=O)N(C)C2(CCN(CCCCCCF)CC2)C1=O`, the TGI with A549 NSCLC, with ACHN renal, in the test with DU-145 prostate, with HCC-2998 colon, in the test with MDA-N and in the test with NCI-H226 lung was above 100 µM throughout. The TGI in the test on SNB-75 CNS and in the test with SW-620 colon was above 100 µM each time.

With `Cc1cc(O)c(C(C)C)cc1N=Cc1ccccc1O`, the TGI was 43 µM in the test with A549 NSCLC; 23.9 µM in the test on ACHN renal; 17.4 µM in the test on DU-145 prostate; 14.7 µM in the test with HCC-2998 colon; above 46.4 µM in the test with HS 578T breast; 17 µM in the test with MDA-N. The TGI with NCI-H226 lung was 20.4 µM; in the test with SW-620 colon it was above 20.4 µM.
